The term IC50 denotes the concentration that gives 50% inhibition. A lower IC50 goes with higher potency. The MIC is the smallest concentration in the dilution series that meets the test's criterion for growth inhibition.

This note sets out measurements from US20200231562A1, “NOVEL MACROLIDE ANTIBIOTICS” (HELMHOLTZ-ZENTRUM FÜR INFEKTIONSFORSCHUNG GMBH, priority 2014, published 2020).

Format in all cases: cell-based
Data set [1] concerns S. aureus Newman in PMA-differentiated human THP-1 cell line (macrophages). Nature of the data set: Intra-macrophage activity. From the text:
The PMA-differentiated human THP-1 cell line (macrophages) was used as cellular host for infection with S. aureus Newman at an MOI (multiplicity of infection) of 10. […] Intracellular bacteria were recovered and serial dilutions were streaked out on CASO-Agar for cfu counting. The reference drug rifampicin reduced the number of intracellular bacteria by ca. 4 logs (at 8×MIC).

Data set [2] concerns Chinese hamster ovary CHO-K1 cells (ACC-110). Nature of the data set: Cytotoxicity (MTT) assay, antiproliferative activity. The conditions noted are these: Cricetulus griseus, 120 h, CHO-K1, 5 d incubation. The method, then:
(§1) Half maximal inhibitory concentrations (IC50) in μg/ml of disciformycin A (1) and disciformycin B (2) for inhibiting the proliferative activity of human HCT-116 colon carcinoma cells, mouse fibroblast cells L929, and Chinese hamster ovary CHO-K1 cells were determined. Cells were seeded at 6×10^3 cells per well of 96-well plates (Corning CellBind®) in complete medium (180 μl) and directly treated with disciformycin dissolved in DMSO in serial dilution. The compound was tested in duplicate, as well as the internal solvent control. After 5 d incubation, 5 mg/ml MTT in PBS (20 μL) was added per well and it was further incubated for 2 h at 37° C. The medium was then discarded and cells were washed with PBS (100 μl) before adding 2-propanol/10N HCl (250:1, v/v; 100 μl) in order to dissolve formazan granules. The absorbance at 570 nm was measured using a microplate reader (EL808, Bio-Tek Instruments Inc.). The amount of formazan, i.e. relative absorption, is thereby proportional to the number of actively proliferating cells.

The test system of data set [3] is HCT-116 colon carcinoma cells (ACC-581). The description is as above. The conditions noted are these: Homo sapiens, 120 h, HCT-116, 5 d incubation. How it is done:
as §1

Data set [4] relates to Mouse fibroblast cells L929 (ACC-2). The description is as above. The conditions noted are these: 120 h, L929, 5 d incubation. The method, then:
as §1

Data set [5] concerns Mycobacterium sp. DSM 43270. Nature of the data set: MIC by microbroth dilution. To be noted: 16 h, 30° C., n.i. = no inhibition up to 67 μg/ml. Put shortly: (§2)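 MIC is taken from a sigmoidal curve fit of absorbance at 600 nm. Bacteria grown overnight in EBS medium are diluted to OD600 0.01, given serially diluted compound in DMSO and shaken for 16 h at 30° C.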
Data set [6] deals with Staphylococcus aureus N315 (MRSA). Nature of the data set: MIC by microbroth dilution. The conditions noted are these: 16 h, 30° C., n.i. = no inhibition up to 67 μg/ml. Put shortly:
as §2
Background: Broth dilution looks for growth in wells or tubes with falling amounts of substance.

For data set [7], the system named is Staphylococcus aureus Newman. Nature of the data set: MIC by microbroth dilution. The conditions noted are these: 16 h, 30° C., n.i. = no inhibition up to 67 μg/ml. An outline of the steps:
as §2

Data set [8] relates to Staphylococcus camosus DSM 20501. Nature of the data set: MIC by microbroth dilution. The conditions noted are these: 30° C., n.i. = no inhibition up to 67 μg/ml. Put shortly: as §2
In data set [9] the test system is Paenibacillus polymyxa DSM 36. Nature of the data set: MIC by microbroth dilution. To be noted: Paenibacillus polymyxa, DSM36, 16 h, 30° C., n.i. = no inhibition up to 67 μg/ml, read-out: MIC. Put shortly: as §2
The subject of the next data set is Bacillus subtilis DSM 10. Nature of the data set: MIC by microbroth dilution. To be noted: Bacillus subtilis, DSM10, 16 h, 30° C., n.i. = no inhibition up to 67 μg/ml, read-out: MIC. An outline of the steps:
as §2

The subject of data set [10] is Nocardioides simplex DSM 20130. Nature of the data set: MIC by microbroth dilution. The conditions noted are these: Pimelobacter simplex, DSM20130, 16 h, 30° C., n.i. = no inhibition up to 67 μg/ml, read-out: MIC. Put shortly: as §2
For data set [11], the system named is Escherichia coli DSM 1116. Nature of the data set: MIC by microbroth dilution. The conditions noted are these: 16 h, 30° C., n.i. = no inhibition up to 67 μg/ml. An outline of the steps:
as §2

In data set [12] the test system is Staphylococcus aureus Mu50 (MRSA/VRSA) ATCC 700699. Nature of the data set: MIC by microbroth dilution. To be noted: 16 h, 30° C., n.i. = no inhibition up to 67 μg/ml. An outline of the steps: as §2
The subject of data set [13] is Staphylococcus aureus DSM 346. Nature of the data set: MIC by microbroth dilution. The conditions noted are these: Staphylococcus aureus, DSM346, 16 h, 30° C., n.i. = no inhibition up to 67 μg/ml, read-out: MIC. Put shortly: as §2
In data set [14] the test system is Chromobacterium violaceum DSM 30191. Nature of the data set: MIC by microbroth dilution. The conditions noted are these: 16 h, 30° C., n.i. = no inhibition up to 67 μg/ml. Put shortly: as §2
The test system of data set [15] is Pseudomonas aeruginosa DSM 50071. Nature of the data set: MIC by microbroth dilution. To be noted: 16 h, 30° C., n.i. = no inhibition up to 67 μg/ml. Put shortly: as §2
Data set [16] relates to Mycobacterium diemhoferi DSM 43524. Nature of the data set: MIC by microbroth dilution. The conditions noted are these: Mycobacterium, DSM43524, 16 h, 30° C., n.i. = no inhibition up to 67 μg/ml, read-out: MIC. An outline of the steps: as §2
Data set [17] has as its system Staphylococcus aureus (MRSA) DSM-11822. Nature of the data set: MIC by microbroth dilution. To be noted: microbroth dilution, 16 h, 30° C., n.i. = no inhibition up to 67 μg/ml. Put shortly:
as §2

[18] abbreviates: Staphylococcus aureus, read-out: MIC.

Converted amounts (≈) assume the structure as drawn. Like-named read-outs stand apart in the source and are kept apart here.

As to `C/C=C(/C)[C@H]1C/C=C(\C)[C@@H](O[C@H]2O[C@H](CO)[C@@H](O)[C@@H]2O)[C@H](OC(=O)CC(C)C)C(=O)C/C=C(/C)C(=O)O1` [Compound 1, disciformycin A], the “reduction of the number of intracellular bacteria” value in [1] (18 h, MOI 10, cfu counting, tested at 1×, 4× and 8×MIC) was 3 logs. Besides, the “cytotoxicity towards THP-1 host cells” value in data set [1] (18 h treatment of infected macrophages) is on record as “without causing any apparent cytotoxicity”. The IC50 was determined as 16.6 µg/mL (≈ 31.6 µM) in data set [2], 13 µg/mL (≈ 24.8 µM) in data set [3] and 29 µg/mL (≈ 55.3 µM) in data set [4]. For the same molecule, the MIC entry is “n.i” in data set [5]; 8.0 µg/mL (≈ 15.2 µM) in [6]; 8 µg/mL (≈ 15.2 µM) in data set [6] (Staphylococcus aureus, MRSA, read-out: MIC); 8.0 µg/mL (≈ 15.2 µM) in [7]; 8 µg/mL (≈ 15.2 µM) in data set [7] (Staphylococcus aureus, NEWMAN, read-out: MIC); 7.8 µg/mL (≈ 14.9 µM) in data set [8] (16 h). Further, the MIC in [8] (Staphylococcus, DSM20501, 16 h, read-out: MIC) was 7.8 µg/mL (≈ 14.9 µM); in data set [9] it was 16.6 µg/mL (≈ 31.6 µM); with Bacillus subtilis DSM 10 it was 4.2 µg/mL (≈ 8.01 µM); in [10], 33.3 µg/mL (≈ 63.5 µM); in data set [11], “n.i”; in data set [12], 2.0 µg/mL (≈ 3.81 µM). For the same molecule, the MIC is 2 µg/mL (≈ 3.81 µM) in [12] (setting [18]); 16.6 µg/mL (≈ 31.6 µM) in data set [13]; “n.i” in data set [14]; “n.i” in data set [15]; 33.3 µg/mL (≈ 63.5 µM) in [16]; 4 µg/mL (≈ 7.62 µM) in data set [17] (setting [18]). The molecule further displayed an MIC in [17] of 4.0 µg/mL (≈ 7.62 µM).
